Test results: publication PMC5785531, “Pharmacokinetic parameters explain the therapeutic activity of antimicrobial agents in a silkworm infection model” (Scientific Reports, 2018)
In brackets after ≈: the same amount, converted by molar mass.

What was measured:
Bacillus cereus JCM20037 = assay: MIC by broth microdilution assay; format: cell-based; details: median of three experiments
Method: (§1) Antimicrobial activity was assessed by determining the MIC by broth dilution assay according to our previous reports[21],[35],[36] as per the Clinical and Laboratory Standards Institute[37]. Briefly, serial dilutions of compound 5, compound 7, and positive controls were prepared in cation-adjusted Mueller-Hinton Broth (MHB, Difco, Franklin Lakes, NJ, USA), 100 µl of which was dispensed into each well of a round-bottomed 96-well plate. The final concentrations in the well ranged from 128 µg/ml to 0.0625 µg/ml. Bacteria were grown at 37 °C overnight on either Luria Bertani (tryptone 10 g/l, yeast extract 5 g/l, NaCl 10 g/l) or Tryptic Soy Broth (TSB, Difco) agar plates or sheep blood agar plates (Eiken Chemical Co. Ltd., Tokyo, Japan). Bacterial inoculum was prepared by direct suspension of the colonies in 0.9% saline, and adjusted to obtain a turbidity equivalent to a 0.5 McFarland standard using a spectrophotometer UV-1280 (Shimadzu Corp., Kyoto, Japan). The suspension was then diluted 1:20 in cation-adjusted MHB (Difco), and 10 µl of it was inoculated into each well of previously prepared 96-well plates containing compounds to obtain approximately 5 × 10^4 colony forming units/well and incubated at 37 °C for 20 h. […] Vancomycin (Wako Pure Chemicals) or norfloxacin (Sigma Aldrich, St Louis, MO, USA) were used as positive controls. Each plate contained a growth control well and a vehicle control well. The MIC was determined as the minimum concentration that inhibited the growth of the bacteria.

NCTC8325 = assay: MIC by broth microdilution assay; format: cell-based; details: Staphylococcus aureus, MSSA / NCTC 8325, median of three experiments
Method: as §1

[1] = tested on: Pseudomonas aeruginosa PAO1; assay: MIC by broth microdilution assay; format: cell-based; details: median of three experiments
Method: as §1

Smith ATCC13709 = assay: MIC by broth microdilution assay; format: cell-based; details: Staphylococcus aureus, ATCC 13709 / MSSA, median of three experiments
Method: as §1

[2] = tested on: Staphylococcus haemolyticus JCM2416; assay: MIC by broth microdilution assay; format: cell-based; details: median of three experiments
Method: as §1

[3] = tested on: Staphylococcus pseudintermedius JCM17571; assay: MIC by broth microdilution assay; format: cell-based; details: median of three experiments
Method: as §1

[4] = Metabolism in pooled human liver S9 fractions; format: in vitro ADME; details: 40 µg/ml compound; pooled human liver S9, NADPH, 37 °C; 10, 20, 30 min; HPLC
Method: Metabolism of the compounds was determined according to Yang et al.[38] with slight modifications. Briefly, reaction mixture containing 5 mM MgCl2, 2 mM NADPH, 20 µg/ml pooled human liver S9 fractions (Sekisui Xenotech, KS, USA) in 0.05 M Tris-HCl buffer (pH 7.4) was pre-incubated at 37 °C for 5 min. The reaction was initiated by the addition of 40 µg/ml compound 5 or compound 7 and incubation was continued. Aliquots (100 µl) were collected at 10, 20, and 30 min, and an equal volume of acetonitrile was added. The resulting mixture was analyzed by HPLC equipped with a Waters 2998 Photodiode Array Detector and a Waters 2707 Autosampler using a Senshu-Pak Pegasil ODS-SP-100 column (4.6 Ø × 250 mm) with gradient elution of 50–100% acetonitrile for 30 min at the flow rate of 1 ml/min. Statistical analysis was performed using Prism 5 for Mac OS X, version 5.0 f (GraphPad Software).

Row | Structure (SMILES) | MIC (Bacillus cereus JCM20037) [µg/mL] | MIC (NCTC8325) [µg/mL] | MIC [1] [µg/mL] | MIC (Smith ATCC13709) [µg/mL] | MIC [2] [µg/mL] | MIC [3] [µg/mL] | metabolism by human liver S9 fractions [4]
1 | O=C(OCc1cc(Cl)cc(Cl)c1)c1ccc([N+](=O)[O-])s1 [compound 5] | 1 (≈ 3.01 µM) | 0.5 (≈ 1.51 µM) | > 128 | 0.5 (≈ 1.51 µM) | 0.25 (≈ 0.753 µM) | 0.125 (≈ 0.376 µM) | slowly metabolized compared with compound 7
2 | O=C(OCc1ccccc1)c1ccc([N+](=O)[O-])s1 [compound 7] | 1 (≈ 3.8 µM) | 1 (≈ 3.8 µM) | > 128 | 0.5 (≈ 1.9 µM) | 0.25 (≈ 0.95 µM) | 0.5 (≈ 1.9 µM) | –
